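Five compound concentrations were applied to cells in 96-well plates for 48 hours; endpoints were derived by simple linear interpolation of the resulting dose-response curve. Abbreviation: GI50, concentration required for 50% inhibition of growth. TGI: total growth inhibition.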
Columns and labels:
Assay in all cases: NCI anticancer screen, dose series, 48 h
[1] = test system: HCC-2998 colon
[2] = test system: ACHN renal
[3] = test system: SF-295 CNS
[4] = test system: HCT-15 colon
[5] = test system: CAKI-1 renal
[6] = test system: SNB-75 CNS
[7] = test system: SK-MEL-28 melanoma
[8] = test system: OVCAR-5 ovarian
[9] = test system: NCI/ADR-RES ovarian
[10] = test system: UO-31 renal
[11] = test system: OVCAR-8 ovarian
[12] = test system: PC-3 prostate
[13] = test system: DU-145 prostate
[14] = test system: BT-549 breast
[15] = test system: SF-539 CNS
[16] = test system: RPMI-8226 leukemia
[17] = test system: MDA-MB-435
[18] = test system: KM12 colon
[19] = test system: SN12C renal
[20] = test system: SF-268 CNS
[21] = test system: CCRF-CEM leukemia
[22] = test system: EKVX NSCLC
[23] = test system: HOP-92 NSCLC
[24] = test system: SR leukemia
[25] = test system: UACC-257 melanoma
[26] = test system: SK-MEL-2 melanoma
[27] = test system: HOP-62 NSCLC
[28] = test system: M14 melanoma
[29] = test system: LOX IMVI melanoma
[30] = test system: UACC-62 melanoma
[31] = test system: SW-620 colon
[32] = test system: HL-60(TB) leukemia
[33] = test system: NCI-H23 lung
[34] = test system: HT29 colon
[35] = test system: A498 renal
[36] = test system: NCI-H460 lung
[37] = test system: NCI-H226 lung
[38] = test system: HS 578T breast
[39] = test system: K-562 leukemia
[40] = test system: MALME-3M melanoma
[41] = test system: SK-MEL-5 melanoma
[42] = test system: COLO 205 colon
[43] = test system: MCF7 breast
[44] = test system: 786-0 renal
[45] = test system: A549 NSCLC
[46] = test system: OVCAR-3 ovarian
[47] = test system: RXF 393 renal
[48] = test system: TK-10 renal
[49] = test system: NCI-H522 lung
[50] = test system: SK-OV-3 ovarian
[51] = test system: IGROV1 ovarian
[52] = test system: U251 CNS
[53] = test system: MDA-MB-231 breast
[54] = test system: HCT-116 colon
[55] = test system: SNB-19 CNS
[56] = test system: MOLT-4 leukemia
[57] = test system: OVCAR-4 ovarian
[58] = test system: T-47D breast

CC(=O)O[C@H]1CC[C@]2(C)[C@H]3CC=C4[C@@H]5CC(C)(C)CC[C@]5(C(=O)NCCNCCN)CC[C@@]4(C)[C@]3(C)CC[C@H]2C1(C)C
GI50 [1]: 0.624 µM
TGI [1]: 2.12 µM
GI50 [2]: 0.196 µM
TGI [2]: 0.388 µM
GI50 [3]: 1.77 µM
TGI [3]: 3.25 µM
GI50 [4]: 0.282 µM
TGI [4]: 0.895 µM
GI50 [5]: 1.25 µM
TGI [5]: 2.59 µM
GI50 [6]: 1.36 µM
TGI [6]: 2.65 µM
GI50 [7]: 1.71 µM
TGI [7]: 3.23 µM
GI50 [8]: 1.64 µM
TGI [8]: 3.09 µM
GI50 [9]: 1.65 µM
TGI [9]: 3.65 µM
GI50 [10]: 1.28 µM
TGI [10]: 2.76 µM
GI50 [11]: 1.7 µM
TGI [11]: 4.27 µM
GI50 [12]: 1.1 µM
TGI [12]: 2.43 µM
GI50 [13]: 1.29 µM
TGI [13]: 2.74 µM
GI50 [14]: 1.68 µM
TGI [14]: 3.3 µM
GI50 [15]: 1.51 µM
TGI [15]: 2.94 µM
GI50 [16]: 1.2 µM
TGI [16]: 3.52 µM
GI50 [17]: 1.34 µM
TGI [17]: 2.65 µM
GI50 [18]: 1.64 µM
TGI [18]: 3.17 µM
GI50 [19]: 1.67 µM
TGI [19]: 3.23 µM

COc1cc2nc(N3CCCC3)nc(Nc3ccccc3)c2cc1OC
GI50 [20]: 1.85 µM
TGI [20]: 3.93 µM
GI50 [21]: 0.329 µM
TGI [21]: 3.09 µM
GI50 [22]: 1.88 µM
TGI [22]: 3.53 µM
GI50 [1]: 1.9 µM
TGI [1]: 3.65 µM
GI50 [23]: 1.39 µM
TGI [23]: 2.99 µM
GI50 [2]: 1.38 µM
TGI [2]: 2.67 µM
GI50 [24]: 0.234 µM
TGI [24]: 1.26 µM
GI50 [25]: 1.86 µM
TGI [25]: 3.79 µM
GI50 [26]: 2.09 µM
TGI [26]: 4.16 µM
GI50 [3]: 1.8 µM
TGI [3]: 3.27 µM
GI50 [4]: 0.68 µM
TGI [4]: 2.04 µM
GI50 [27]: 1.93 µM
TGI [27]: 4.2 µM
GI50 [28]: 1.83 µM
TGI [28]: 3.56 µM
GI50 [29]: 0.201 µM
TGI [29]: 0.479 µM
GI50 [30]: 1.73 µM
TGI [30]: 3.23 µM
GI50 [31]: 1.52 µM
TGI [31]: 3.17 µM
GI50 [32]: 0.635 µM
TGI [32]: 2.42 µM
GI50 [33]: 1.93 µM
TGI [33]: 3.76 µM
GI50 [34]: 1.34 µM
TGI [34]: 3.11 µM
GI50 [35]: 1.02 µM
TGI [35]: 2.28 µM
GI50 [36]: 1.86 µM
TGI [36]: 3.59 µM
GI50 [5]: 1.45 µM
TGI [5]: 2.8 µM
GI50 [37]: 1.97 µM
TGI [37]: 4.12 µM
GI50 [6]: 1.39 µM
TGI [6]: 2.7 µM
GI50 [38]: 1.97 µM
TGI [38]: 4.45 µM
GI50 [39]: 0.382 µM
TGI [39]: 2.07 µM
GI50 [7]: 1.76 µM
TGI [7]: 3.18 µM
GI50 [40]: 1.88 µM
TGI [40]: 3.37 µM
GI50 [8]: 1.75 µM
TGI [8]: 3.14 µM
GI50 [9]: 1.74 µM
TGI [9]: 4.07 µM
GI50 [41]: 1.71 µM
TGI [41]: 3.12 µM
GI50 [42]: 1.3 µM
TGI [42]: 3.96 µM
GI50 [10]: 1.39 µM
TGI [10]: 2.84 µM
GI50 [11]: 1.54 µM
TGI [11]: 5.06 µM
GI50 [43]: 0.637 µM
TGI [43]: 2.29 µM
GI50 [44]: 1.71 µM
TGI [44]: 3.53 µM
GI50 [45]: 1.65 µM
TGI [45]: 4.31 µM
GI50 [12]: 1.71 µM
TGI [12]: 3.45 µM
GI50 [46]: 1.8 µM
TGI [46]: 3.3 µM
GI50 [47]: 1.4 µM
TGI [47]: 2.78 µM
GI50 [48]: 1.88 µM
TGI [48]: 3.37 µM
GI50 [13]: 1.62 µM
TGI [13]: 3.07 µM
GI50 [49]: 1.89 µM
TGI [49]: 3.96 µM
GI50 [14]: 1.69 µM
TGI [14]: 3.25 µM
GI50 [15]: 0.56 µM
TGI [15]: 1.84 µM
GI50 [16]: 1.07 µM
TGI [16]: 4.3 µM
GI50 [17]: 1.66 µM
TGI [17]: 3.09 µM
GI50 [18]: 1.74 µM
TGI [18]: 3.32 µM
GI50 [50]: 1.99 µM
TGI [50]: 3.72 µM
GI50 [51]: 1.38 µM
TGI [51]: 2.84 µM
GI50 [52]: 1.02 µM
TGI [52]: 2.45 µM
GI50 [53]: 1.56 µM
TGI [53]: 3.11 µM
GI50 [19]: 1.72 µM
TGI [19]: 3.24 µM
GI50 [54]: 0.58 µM
TGI [54]: 2.44 µM
GI50 [55]: 1.65 µM
TGI [55]: 3.14 µM
GI50 [56]: 1.54 µM
TGI [56]: 4.33 µM
GI50 [57]: 1.43 µM
TGI [57]: 2.8 µM

BrCCCc1n(Cc2ccc3ccccc3c2)c2ccccc2[n+]1Cc1ccc2ccccc2c1
GI50 [9]: 8.47 µM
TGI [9]: > 81.3 µM
GI50 [13]: 1.58 µM
TGI [13]: 4.25 µM

c1ccc2sc(SCN(C3CCCCC3)C3CCCCC3)nc2c1
TGI [20]: > 100 µM
TGI [22]: > 100 µM
TGI [1]: > 100 µM
TGI [23]: > 100 µM
TGI [2]: > 100 µM
TGI [24]: > 100 µM
TGI [25]: > 100 µM
TGI [26]: > 100 µM
TGI [3]: > 100 µM
TGI [4]: > 100 µM
TGI [27]: > 100 µM
TGI [28]: > 100 µM
TGI [29]: > 100 µM
TGI [30]: > 100 µM
TGI [31]: > 100 µM
TGI [33]: > 100 µM
TGI [34]: > 100 µM
TGI [35]: > 100 µM
TGI [36]: > 100 µM
TGI [5]: > 100 µM
TGI [37]: > 100 µM
TGI [38]: > 100 µM
TGI [39]: > 100 µM
TGI [58]: 49.5 µM
TGI [7]: > 100 µM
TGI [40]: > 100 µM
TGI [8]: > 100 µM
TGI [9]: > 100 µM
TGI [41]: > 100 µM
TGI [10]: > 100 µM
TGI [11]: > 100 µM
TGI [45]: > 100 µM
TGI [12]: > 100 µM
TGI [46]: > 100 µM
TGI [47]: > 100 µM
TGI [48]: > 100 µM
TGI [13]: > 100 µM
TGI [49]: > 100 µM
TGI [14]: > 100 µM
TGI [17]: > 100 µM
TGI [18]: > 100 µM
TGI [51]: > 100 µM
TGI [52]: > 100 µM
TGI [53]: > 100 µM
TGI [55]: > 100 µM
TGI [56]: > 100 µM
TGI [57]: > 100 µM

Source: PubChem BioAssay (NCI)
